Source: ChEMBL document CHEMBL1201862, “PubChem BioAssay data set” (2004)
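Values below derive from 48-hour exposures of cells grown in 96-well plates, with endpoints linearly interpolated between the two concentrations bracketing the appropriate inhibition level. GI50 is the concentration that inhibits growth by half.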 Calls of active or inactive are those of the source. Rule as the data show it: active = GI50 up to about 1.1 µM and inactive = higher.

Columns and labels:
Assay in all cases: inhibition of tumour cell growth, NCI panel, 48 h
[1] = tested on: A498
[2] = tested on: CAKI-1
[3] = tested on: CCRF-CEM
[4] = tested on: EKVX
[5] = tested on: HL-60
[6] = tested on: KM12
[7] = tested on: MOLT-4
[8] = tested on: RXF 393
[9] = tested on: SK-OV-3
[10] = tested on: SNB-19
[11] = tested on: SNB-75
[12] = tested on: SR
[13] = tested on: U-251
[14] = tested on: UO-31
[15] = tested on: NCI-H522
[16] = tested on: TK-10
[17] = tested on: DU-145
[18] = tested on: MDA-MB-435
[19] = tested on: NCI/ADR-RES
[20] = tested on: MDA-N

Row | Compound | GI50 [1] | GI50 [2] | GI50 [3] | GI50 [4] | GI50 [5] | GI50 [6] | GI50 [7] | GI50 [8] | GI50 [9] | GI50 [10] | GI50 [11] | GI50 [12] | GI50 [13] | GI50 [14] | GI50 [15] | GI50 [16] | GI50 [17] | GI50 [18] | GI50 [19] | GI50 [20]
1 | COC1/C(=C\C(=O)OC(C)(C)C)c2ccccc2N1C(C)=O (stereo not drawn) | > 100 µM (inactive) | > 100 µM (inactive) | > 100 µM (inactive) | > 100 µM (inactive) | 36.2 µM (inactive) | 9.53 µM (inactive) | 81.7 µM (inactive) | 26.6 µM (inactive) | > 100 µM (inactive) | > 100 µM (inactive) | > 100 µM (inactive) | 48 µM (inactive) | > 100 µM (inactive) | > 100 µM (inactive) |  |  |  |  |  | 
2 | O=C(O)Cn1c(=O)[nH]c(=O)c2c1ncn2Cc1ccccc1 | > 100 µM (inactive) | > 100 µM (inactive) | > 100 µM (inactive) | > 100 µM (inactive) |  | > 100 µM (inactive) | > 100 µM (inactive) |  | > 100 µM (inactive) | > 100 µM (inactive) | > 100 µM (inactive) | > 100 µM (inactive) | > 100 µM (inactive) | > 100 µM (inactive) | > 100 µM (inactive) | > 100 µM (inactive) |  |  |  | 
3 | CSc1nnc2n1-c1ccccc1SCC2 | > 100 µM (inactive) |  | > 100 µM (inactive) | > 100 µM (inactive) | > 100 µM (inactive) | > 100 µM (inactive) | > 100 µM (inactive) | > 100 µM (inactive) | > 100 µM (inactive) | > 100 µM (inactive) | > 100 µM (inactive) | > 100 µM (inactive) | > 100 µM (inactive) | > 100 µM (inactive) | > 100 µM (inactive) | > 100 µM (inactive) |  |  |  | 
4 | CCCCCC(=O)Cc1cc(OC)cc2c1C(=O)Oc1cc(O)c(C(=O)O)c(CC(=O)CCCCC)c1O2 | 39 µM (inactive) | > 100 µM (inactive) | 40.7 µM (inactive) | 33.1 µM (inactive) | 38.9 µM (inactive) | 46.5 µM (inactive) | 27.2 µM (inactive) |  | 46.9 µM (inactive) |  | 55.7 µM (inactive) | 52.6 µM (inactive) | 15.8 µM (inactive) |  | 46.3 µM (inactive) | 63.4 µM (inactive) |  |  |  | 
5 | Cc1cc(N(CCC#N)CCC#N)ccc1/C=C1\N=C(c2cc([N+](=O)[O-])ccc2Cl)N(c2cccc(Cl)c2)C1=O | > 100 µM (inactive) | 3.08 µM (inactive) | 71.6 µM (inactive) | 23.8 µM (inactive) | > 100 µM (inactive) | > 100 µM (inactive) | 79.6 µM (inactive) |  | > 100 µM (inactive) | < 0.01 µM (active) | > 100 µM (inactive) | 94.4 µM (inactive) | > 100 µM (inactive) | > 100 µM (inactive) | 58.6 µM (inactive) | > 100 µM (inactive) |  |  |  | 
6 | CCc1cn2c(/C=N/N=C(N)N)c(-c3cc(C)c(Cl)cc3Cl)nc2s1 | 1.77 µM (inactive) | 1.27 µM (inactive) | 0.209 µM (active) |  | 1.82 µM (inactive) | 1.58 µM (inactive) |  | 1.74 µM (inactive) | 1.7 µM (inactive) | 1.54 µM (inactive) | 1.55 µM (inactive) | 1.56 µM (inactive) | 1.53 µM (inactive) | 1.64 µM (inactive) | 1.87 µM (inactive) | 1.97 µM (inactive) | 1.64 µM (inactive) | 1.41 µM (inactive) | 3.95 µM (inactive) | 
7 | O=C(Cc1ccccc1CCO)NCCc1ccccc1 | > 100 µM (inactive) | > 100 µM (inactive) | > 100 µM (inactive) | > 100 µM (inactive) | > 100 µM (inactive) | > 100 µM (inactive) | > 100 µM (inactive) | > 100 µM (inactive) | > 100 µM (inactive) | > 100 µM (inactive) | > 100 µM (inactive) | > 100 µM (inactive) | > 100 µM (inactive) | 41.8 µM (inactive) | > 100 µM (inactive) | > 100 µM (inactive) | > 100 µM (inactive) | > 100 µM (inactive) | > 100 µM (inactive) | 
8 | C1=Cc2nc1c(-c1ccccc1)c1nc(c(-c3ccccc3)c3ccc([nH]3)c(-c3ccccc3)c3ccc([nH]3)c2-c2ccccc2)C=C1 [TETRAPHENYLPORPHYRIN] | > 100 µM (inactive) | > 100 µM (inactive) | > 100 µM (inactive) | > 100 µM (inactive) | > 100 µM (inactive) | > 100 µM (inactive) | > 100 µM (inactive) |  | > 100 µM (inactive) | > 100 µM (inactive) | > 100 µM (inactive) | > 100 µM (inactive) | > 100 µM (inactive) | > 100 µM (inactive) | > 100 µM (inactive) | > 100 µM (inactive) |  |  |  | 
9 | COc1ccc(NC(=O)C2=C(SC)C(=O)N=C2N)cc1 | > 100 µM (inactive) | > 100 µM (inactive) | > 100 µM (inactive) | > 100 µM (inactive) | > 100 µM (inactive) | > 100 µM (inactive) | > 100 µM (inactive) | > 100 µM (inactive) | > 100 µM (inactive) | > 100 µM (inactive) | > 100 µM (inactive) | 40.6 µM (inactive) | > 100 µM (inactive) | > 100 µM (inactive) |  | > 100 µM (inactive) | > 100 µM (inactive) | > 100 µM (inactive) | > 100 µM (inactive) | 
10 | ON(CCc1ccncc1)Cc1ccccc1 | > 100 µM (inactive) | > 100 µM (inactive) |  | > 100 µM (inactive) |  | > 100 µM (inactive) | > 100 µM (inactive) | > 100 µM (inactive) | > 100 µM (inactive) | > 100 µM (inactive) | > 100 µM (inactive) | > 100 µM (inactive) |  | > 100 µM (inactive) | > 100 µM (inactive) |  | > 100 µM (inactive) | > 100 µM (inactive) | > 100 µM (inactive) | 
11 | CCOC(=O)C1=C(C)N(Cc2ccc(Cl)cc2Cl)C2(O)C(OC)CC(=O)C3C(=O)N(c4ccccc4)C(=O)C132 (stereo not drawn) | 10.8 µM (inactive) | 6.71 µM (inactive) | 0.466 µM (active) | 3.4 µM (inactive) | 2.24 µM (inactive) | 2.63 µM (inactive) | 1.79 µM (inactive) | 1.11 µM (active) |  | 2.53 µM (inactive) | < 0.01 µM (active) | 1.57 µM (inactive) | 1.5 µM (inactive) | 4.54 µM (inactive) | 2.01 µM (inactive) | 10 µM (inactive) | 1.06 µM (active) | 2.63 µM (inactive) | 2.01 µM (inactive) | 
12 | CN(C)CCNC(=O)c1cccc2nc3c(C(=O)NCCN(C)C)cccc3nc12 | 1.85 µM (inactive) | 2.14 µM (inactive) | 0.59 µM (active) | 1.49 µM (inactive) | 0.713 µM (active) | 1.26 µM (inactive) | 0.43 µM (active) | 1.44 µM (inactive) |  | 1.11 µM (active) | 2.63 µM (inactive) | 0.368 µM (active) | 0.632 µM (active) | 1.41 µM (inactive) | 0.458 µM (active) | 1.86 µM (inactive) | 1.37 µM (inactive) | 1.21 µM (inactive) | 5.15 µM (inactive) | 
13 | CCOC(=O)CCn1ncc(Cl)c(Cl)c1=O | 22.7 µM (inactive) | 6.18 µM (inactive) | 2.9 µM (inactive) | 18.7 µM (inactive) | 2.67 µM (inactive) | 4.86 µM (inactive) | 3.13 µM (inactive) | 11.4 µM (inactive) | 26.7 µM (inactive) | 13.5 µM (inactive) | 14.8 µM (inactive) | 2.89 µM (inactive) | 5.89 µM (inactive) | 15.7 µM (inactive) | 0.291 µM (active) | 17.9 µM (inactive) |  |  |  | 
14 | C=CCc1c(C)nc(C)nc1N/N=C/C=C/c1ccccc1 | 25.9 µM (inactive) | 58.6 µM (inactive) | 44 µM (inactive) | 17.6 µM (inactive) | 33.6 µM (inactive) |  | 22.4 µM (inactive) | 4.06 µM (inactive) | 55.5 µM (inactive) | 31.8 µM (inactive) | 21.9 µM (inactive) | 22.6 µM (inactive) | 23.6 µM (inactive) | 39.7 µM (inactive) | 28.2 µM (inactive) | 33 µM (inactive) |  | 23.6 µM (inactive) | 23.9 µM (inactive) | 29.2 µM (inactive)
15 | COC(=O)/C(=C/c1ccc(OC)cc1)NC(=O)c1ccccc1 | > 100 µM (inactive) | > 100 µM (inactive) | 2 µM (inactive) | > 100 µM (inactive) |  | > 100 µM (inactive) |  | > 100 µM (inactive) | > 100 µM (inactive) | > 100 µM (inactive) | > 100 µM (inactive) | > 100 µM (inactive) | > 100 µM (inactive) | > 100 µM (inactive) |  | > 100 µM (inactive) |  |  |  | 
16 | NCCCC1NC(=O)/C(=C(O)/C=C/C2CCC[C@@H]2CC2SCCS2)C1=O (stereo partly drawn) | > 100 µM (inactive) |  | 54.1 µM (inactive) | > 100 µM (inactive) | 23.3 µM (inactive) | > 100 µM (inactive) | 43.4 µM (inactive) | > 100 µM (inactive) | > 100 µM (inactive) | > 100 µM (inactive) | > 100 µM (inactive) | 58.5 µM (inactive) | > 100 µM (inactive) | > 100 µM (inactive) | 29 µM (inactive) | > 100 µM (inactive) |  |  |  | 
17 | O=P1(O)c2ccccc2CCc2ccccc21 |  | > 100 µM (inactive) | > 100 µM (inactive) | > 100 µM (inactive) |  | > 100 µM (inactive) | > 100 µM (inactive) | > 100 µM (inactive) | > 100 µM (inactive) | > 100 µM (inactive) | > 100 µM (inactive) |  |  | > 100 µM (inactive) | > 100 µM (inactive) | > 100 µM (inactive) | > 100 µM (inactive) | > 100 µM (inactive) |  | > 100 µM (inactive)
